For the assay, the system named is bacteria, virus and yeast. The assay can be described thus: germicidal efficacy of surfactant-detergent compounds. Conditions: surfactants tested separately and in combination. The source says:
Disinfecting surfactant-detergent compounds are also used in the liquid composition. Surfactants are effective germicides and attack the membranes of the organisms. Also, the surfactants are surface active reducing surface tension. […] It is thought that the surfactant has two characteristics which contribute to this invention. Those being germicidal activity including effectiveness over a wide range of organisms including bacteria, virus and yeast and providing a reduction of the surface tension of the composition to achieve effective spread and distribution if the germicide on the surface to be disinfected. Two different types of surfactants were tested separately and in combination for efficacy. […] There are other compounds which have the properties of germicide-surfactants, and this invention is not limited to those compounds shown in the examples.

In patent US20060222675A1, “Personal care compositions with color changing indicator” (priority 2005, published 2006) one finds efficacy as germicide-surfactant data, which are given here for two molecules.

Turning to `CCCCCCCCCCCCOS(=O)(=O)[O-].[Na+]` [sodium dodecyl sulfate], the efficacy as germicide-surfactant entry is given as “effective germicide-surfactants”.
On to octyl phenoxy polyethoxyethanol, for which the efficacy as germicide-surfactant entry is on record as “effective germicide-surfactants”.
